This note sets out measurements from patent US20170216252A1, “ANTI-BACTERIAL PYRUVATE KINASE MODULATOR COMPOUNDS, COMPOSITIONS, USES AND METHODS” (SIMON FRASER UNIVERSITY, priority 2014, published 2017).

Data set [1] deals with S. aureus ATCC 29213. The data set can be described thus: In vitro susceptibility, broth microdilution MIC. It counts as cell-based, Staphylococcus aureus. The conditions noted are these: Staphylococcus aureus. In short, it runs like this:
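The MIC against S. aureus 29213 was determined by CLSI 2-fold serial broth microdilution in Mueller Hinton broth. Plates were incubated for 18–24 h at 37 °C and read at OD600 with background subtracted. The MIC was the lowest concentration giving complete growth inhibition versus compound-free wells.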

Data set [2] concerns the target T1, MRSA PK (Staphylococcus aureus, UniProt Q6GG09).
T1 construct: His tag (pET-28a(+) vector) (N); made in house; host or cells: E. coli BL-21 (DE3)
In words: MRSA PK activity, continuous LDH-coupled assay. The format is biochemical, S. aureus (MRSA strain Sanger 252). The settings on record: for inhibition at 10 µM: read-out: % Inhibition MRSA PK. Summed up: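 Purified His-tagged MRSA PK (15 nM, E. coli-expressed) started reactions run up to 5 min at 30 °C. Activity was followed continuously by LDH-coupled NADH oxidation at 340 nm, with DMSO ≤1%. IC50 came from four-parameter variable-slope fits.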

Data set [3] has as its system S. aureus ATCC 29123. In words: Neutropenic mouse Staphylococcus aureus thigh infection model. It counts as in vivo. The conditions noted are these: for median CFU/thigh: 24 h endpoint. How it is done:
The antimicrobial activity of compound 178 against S. aureus ATCC 29123 was tested in vivo using the neutropenic mouse Staphylococcus aureus thigh infection model. […] Animals were individually monitored for adverse reactions for 30 min post-infection. […] Vancomycin was administered as a solution in PBS. The test compounds were administered as outlined in Table 12 at 2 and 8 hours post-infection and animals were individually monitored for adverse reactions for 30 min after each injection. All animals were then monitored hourly from 20 hours post infection to the endpoint (t=24 hr post infection). At the indicated timepoint, animals were sacrificed and the injected thigh collected. Quantitative enumeration of bacterial load was determined by plating serial dilutions from homogenized thigh muscles. Homogenized muscle was in a total of 2 mL volume, from which a 1 in 10 dilution was prepared (100 μL into 900 μL saline). From this a series of dilutions were prepared and plated on Mueller Hinton agar plates. […] At the end of this time colony counts were determined and the final CFU per mL calculated.

Where [4] appears, read: ATCC29213, Tables 1-6 and text, minimum concentration to give >98% inhibition of growth, read-out: MIC.
[5] abbreviates: Tables 1-6, 2 mM ADP, 10 mM PEP, 15 nM PK, read-out: IC50.

Values after ≈ are worked out from the molar mass of the structure shown. Values joined by “and” are separate entries in the source; they are usually repeats but may differ in a detail not shown here. Identical values can stand only once. Like-named read-outs stand apart in the source and are kept apart here.

T1 sequence (Q6GG09 whole entry): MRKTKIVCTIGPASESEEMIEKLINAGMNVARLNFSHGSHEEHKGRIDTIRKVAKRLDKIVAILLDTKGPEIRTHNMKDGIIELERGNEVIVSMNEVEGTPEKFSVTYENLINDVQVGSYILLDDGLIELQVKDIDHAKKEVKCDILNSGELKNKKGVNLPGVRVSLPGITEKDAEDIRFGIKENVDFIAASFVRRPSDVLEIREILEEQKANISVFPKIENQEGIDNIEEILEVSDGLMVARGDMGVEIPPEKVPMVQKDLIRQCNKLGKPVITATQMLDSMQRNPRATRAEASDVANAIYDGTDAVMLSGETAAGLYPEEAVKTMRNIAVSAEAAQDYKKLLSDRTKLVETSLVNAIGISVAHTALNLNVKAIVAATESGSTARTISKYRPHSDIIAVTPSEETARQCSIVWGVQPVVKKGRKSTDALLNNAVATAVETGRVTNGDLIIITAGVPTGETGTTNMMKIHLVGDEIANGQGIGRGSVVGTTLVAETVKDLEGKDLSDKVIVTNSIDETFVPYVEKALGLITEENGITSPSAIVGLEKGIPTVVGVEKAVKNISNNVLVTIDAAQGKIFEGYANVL

Compound `Brc1ccc2cc(-c3cc4ccc(Br)cc4[nH]3)[nH]c2c1` [Compound 10b, 6,6′-Dibromo-1H,1′H-2,2′-biindole] came in with a melting point of 266 to 267 °C. For the same compound, the MIC in data set [1] (setting [4]) turned out to be 16 µg/mL (≈ 41 µM). In data set [2] (setting [5]), the IC50 turned out to be 7 nM. In addition, in data set [2], the inhibition at 10 µM was 84.9%.

`Cn1c(-c2cc3ccc(Br)cc3[nH]2)cc2cc(Br)ccc21` [Compound 12a, 5,6′-Dibromo-1-methyl-1H,1′H-2,2′-biindole] yielded a melting point of 180 to 182 °C. Further, the MIC in data set [1] (setting [4]) is above 64 µg/mL. Further, the IC50 in data set [2] (setting [5]) was 1 nM. Also, the inhibition at 10 µM in data set [2] was found to be 99%.

`Brc1ccc2cc(-c3cc4ccccc4o3)[nH]c2c1` [Compound 22b, 2-(Benzofuran-2-yl)-6-bromo-1H-indole] gave a melting point of 196 to 198 °C. Besides, the MIC in data set [1] (setting [4]) was above 64 µg/mL. Besides, the IC50 in data set [2] (setting [5]) is 108 nM. Besides, the inhibition at 10 µM in data set [2] is 95.9%.

Consider `Brc1ccc2c(c1)cc(-c1cc3ccc(Br)cc3[nH]1)n2CCN1CCOCC1` [Compound 20b, 4-(2-(5,6′-dibromo-1H,1′H-[2,2′-biindol]-1-yl)ethyl)morpholine], for which the MIC in data set [1] (setting [4]) was above 64 µg/mL. Besides, the IC50 in data set [2] (setting [5]) was determined as 1.2 nM. Further, the inhibition at 10 µM in data set [2] was found to be 101%.

Regarding `COc1cc(-c2cc3ccccc3[nH]2)ccc1-c1cc2ccc(Br)cc2[nH]1` [Compound 33e, 2-(4-(1H-indol-2-yl)-2-methoxyphenyl)-6-bromo-1H-indole], the MIC in data set [1] (setting [4]) was above 64 µg/mL. The IC50 in data set [2] (setting [5]) amounted to 2.1 nM. For the same compound, the inhibition at 10 µM in data set [2] came out at 62.2%.

`CN1CCN(CCn2c(-c3cc4ccc(Br)cc4[nH]3)cc3cc(Br)ccc32)CC1` [Compound 20a, 5,6′-Dibromo-1-(2-(4-methylpiperazin-1-yl)ethyl)-1H,1′H-2,2′-biindole] displayed a melting point of 140 °C. The MIC in data set [1] (setting [4]) came out at 4 µg/mL (≈ 7.75 µM). The IC50 in data set [2] (setting [5]) is 2 nM. Further, in data set [2], the inhibition at 10 µM came out at 100%.

For the compound `OCCn1c(-c2cc3ccc(Br)cc3[nH]2)cc2cc(Br)ccc21` [Compound 17, 2-(5,6′-Dibromo-1H, 1′H-[2,2′-biindol]-1-yl)ethanol], the MIC in data set [1] (setting [4]) came to 2 µg/mL (≈ 4.61 µM). In addition, in data set [2] (setting [5]), the IC50 is 1.3 nM. Also, the inhibition at 10 µM in data set [2] worked out at 101%.

Take `Brc1cc2cc(-c3cc4cc(Br)c(Br)cc4[nH]3)[nH]c2cc1Br` [Compound 10l, 5,5′,6,6′-Tetrabromo-1H,1′H-2,2′-biindole]: in data set [1] (ATCC29213), the MIC was above 64 µg/mL. Moreover, the concentration for half-maximal inhibition (IC50) in data set [2] (setting [5]) was found to be 2 nM. Besides, the inhibition at 10 µM in data set [2] turned out to be 97.6%.

Take `O=C(c1c(-c2cc3cc(Cl)ccc3[nH]2)[nH]c2cc(Br)ccc12)C(F)(F)F` [Compound 178, 1-(6-bromo-5′-chloro-1H,1′H-[2,2′-biindol]-3-yl)-2,2,2-trifluoroethan-1-one]: the MIC in data set [1] (ATCC29213, S. aureus (ATCC29213), Table 9, read-out: MIC (μg/mL) H) stood at 1 µg/mL (≈ 2.26 µM). In data set [2], the IC50 was below 50 nM. For the same compound, in data set [3] (all treated groups vs untreated control), the “log reduction in median counts for CFU/thigh” value is at least 1 log. Moreover, the “median CFU/thigh” value in data set [3] (group 3, 3 mg/kg IV at 2 and 8 h) was 8.27×10^6 CFU/thigh; in data set [3] (group 4, 10 mg/kg IV at 2 and 8 h), 1.38×10^3 CFU/thigh; in data set [3] (group 5, PO 10 mg/kg at 2 and 8 h), 1.2×10^2 CFU/thigh. Also, in data set [3] (group 5, PO 10 mg/kg vs untreated control), the “log reduction in median counts” value came out at 6 log. For the same compound, the “CFU/thigh of one mouse dosed only once” value in data set [3] (group 5, PO 10 mg/kg, single dose) is listed as 2.2×10^2 CFU/thigh.

Turning to `Brc1ccc2[nH]c(-c3cc4cc(Br)ccc4[nH]3)cc2c1` [Compound 10i, 5,5′-Bibromo-1H,1′H-2,2′-biindole], the melting point was in the range of 304 to 306 °C. Also, in data set [1] (setting [4]), the MIC was above 64 µg/mL. Also, in data set [2] (setting [5]), the IC50 is 3 nM. Moreover, the inhibition at 10 µM in data set [2] was 71%.

Turning to `Brc1ccc2cc(-c3nc4ccccc4s3)[nH]c2c1` [Compound 22a, 2-(6-Bromo-1H-indol-2-yl)benzo[d]thiazole], in data set [1] (setting [4]), the MIC is above 64 µg/mL. The IC50 in data set [2] (setting [5]) worked out at 152 nM. In addition, in data set [2], the inhibition at 10 µM turned out to be 89.8%.

For the compound `Brc1ccc2[nH]c(C#Cc3cc4ccc(Br)cc4[nH]3)cc2c1` [Compound 25c, 6-Bromo-2-((5-bromo-1H-indol-2-yl)ethynyl)-1H-indole], the melting point was 236 to 237 °C. In data set [1] (setting [4]), the MIC amounted to 16 µg/mL (≈ 38.6 µM). Further, the IC50 in data set [2] (setting [5]) was determined as 4.7 nM. Further, in data set [2], the inhibition at 10 µM was 86.3%.

Turning to `Brc1ccc2[nH]c(-c3cc4ccc(Br)cc4[nH]3)cc2c1` [Compound 10c, 5,6-Bibromo-1H,1′H-2,2′-biiindole], the melting point lay within 270 to 272 °C. In addition, the MIC in data set [1] (setting [4]) stood at 0.3 µg/mL (≈ 0.769 µM). In addition, in data set [2] (setting [5]), the IC50 was 2.2 nM. Moreover, the inhibition at 10 µM in data set [2] turned out to be 97.8%.

Regarding `Brc1ccc2cc(CCc3cc4ccc(Br)cc4[nH]3)[nH]c2c1` [Compound 28a, 1,2-bis(6-bromo-1H-indol-2-yl)ethane], the MIC in data set [1] (setting [4]) is above 64 µg/mL. For the same compound, the IC50 in data set [2] (setting [5]) was 6 nM and 6.5 nM. For the same compound, the inhibition at 10 µM in data set [2] amounted to 93.4%.

Consider `Brc1ccc2cc(-c3cc4cc(Br)c(Br)cc4[nH]3)[nH]c2c1` [Compound 10k, 5,6,6′-Tribromo-1H,1′H-2,2′-biindole], for which the MIC in data set [1] (setting [4]) came to 0.5 µg/mL (≈ 1.07 µM). Moreover, in data set [2] (setting [5]), the IC50 was determined as 1.5 nM. Moreover, in data set [2], the inhibition at 10 µM is 94.1%.

Regarding `Brc1ccc2cc(/C=C/c3cc4ccccc4[nH]3)[nH]c2c1` [Compound 27a, (E)-2-(2-(1H-indol-2-yl)vinyl)-6-bromo-1H-indole], the MIC in data set [1] (setting [4]) is above 64 µg/mL. The IC50 in data set [2] (setting [5]) was determined as 4.5 nM. The inhibition at 10 µM in data set [2] is 93.4%.
